Experimental data from the supplement of paper PMC6045584.
± gives the standard deviation of the averaged measurements.

Tests used:
[1] = compound: C[C@H](CN(C)C)Oc1nc(Nc2cc3cccc(Cl)c3cn2)cnc1C#N; assay: surviving fraction relative to DMSO-only wells; higher = less growth inhibition; conditions: exposure time: 5 days
Method in brief: (§1)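 Log-phase tumour cell lines were seeded at 250–500 cells per well in 384-well plates. After 24 hours they were exposed continuously for five days to inhibitors at 0.5, 1, 5, 10, 50, 100, 500 and 1000 nM. Viability was read by CellTiter-Glo luminescence after 10 minutes at room temperature, and surviving fraction is luminescence normalised to the median of DMSO-only wells. Each line was screened three times and kept only if replicate Pearson r >0.7 and median Z' >0.3.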

[2] = compound: Cc1cn(-c2cc(NC(=O)c3ccc(C)c(Nc4nccc(-c5cccnc5)n4)c3)cc(C(F)(F)F)c2)cn1 [NILOTINIB]; assay: as above; conditions: exposure time: 5 days
Method in brief: as §1

Row | Test System | surviving fraction ([1]; 0.5 nM) | surviving fraction ([1]; 1 nM) | surviving fraction ([1]; 5 nM) | surviving fraction ([1]; 10 nM) | surviving fraction ([1]; 50 nM) | surviving fraction ([1]; 100 nM) | surviving fraction ([1]; 500 nM) | surviving fraction ([1]; 1000 nM) | surviving fraction ([2]; 0.5 nM) | surviving fraction ([2]; 1 nM) | surviving fraction ([2]; 5 nM) | surviving fraction ([2]; 10 nM) | surviving fraction ([2]; 50 nM) | surviving fraction ([2]; 100 nM) | surviving fraction ([2]; 500 nM) | surviving fraction ([2]; 1000 nM)
1 | CCK81 LARGE INTESTINE | 0.681 ± 0.1 | 0.819 ± 0.097 | 0.726 ± 0.09 | 0.739 ± 0.029 | 0.774 ± 0.15 | 0.52 ± 0.084 | 0.349 ± 0.069 | 0.374 ± 0.049 | 0.78 ± 0.088 | 0.839 ± 0.07 | 0.759 ± 0.055 | 0.737 ± 0.11 | 0.931 ± 0.04 | 0.877 ± 0.046 | 0.702 ± 0.1 | 0.616 ± 0.023
2 | G292 BONE | 1.06 ± 0.053 | 1.02 ± 0.012 | 1.05 ± 0.021 | 1.05 ± 0.075 | 1.107 ± 0.0061 | 1.08 ± 0.061 | 0.648 ± 0.046 | 0.43 ± 0.028 | 1.04 ± 0.042 | 1 ± 0.044 | 1.08 ± 0.033 | 1.06 ± 0.048 | 1.08 ± 0.031 | 1.1 ± 0.023 | 1.02 ± 0.013 | 0.956 ± 0.023
3 | HCC38 BREAST | 1.25 ± 0.22 | 1.32 ± 0.18 | 1.36 ± 0.28 | 1.3 ± 0.14 | 0.989 ± 0.06 | 0.821 ± 0.23 | 0.125 ± 0.028 | 0.0697 ± 0.013 | 0.988 ± 0.28 | 0.786 ± 0.015 | 1.01 ± 0.16 | 0.818 ± 0.15 | 0.742 ± 0.2 | 0.758 ± 0.039 | 0.823 ± 0.24 | 0.824 ± 0.16
4 | HCC70 BREAST | 1.07 ± 0.06 | 1.11 ± 0.14 | 1.01 ± 0.038 | 1.09 ± 0.034 | 1.1 ± 0.045 | 1.14 ± 0.025 | 0.639 ± 0.086 | 0.191 ± 0.021 | 1.07 ± 0.049 | 1.13 ± 0.036 | 1.12 ± 0.02 | 1.09 ± 0.13 | 1.17 ± 0.052 | 1.33 ± 0.072 | 1.34 ± 0.079 | 1.31 ± 0.04
5 | HMLE3 BREAST | 1 ± 0.081 | 0.949 ± 0.035 | 1.01 ± 0.04 | 0.998 ± 0.056 | 1.07 ± 0.069 | 1.07 ± 0.1 | 0.93 ± 0.076 | 0.735 ± 0.025 | 1.11 ± 0.018 | 1.07 ± 0.11 | 1.19 ± 0.1 | 1.18 ± 0.15 | 1.25 ± 0.026 | 1.26 ± 0.068 | 1.27 ± 0.15 | 1.23 ± 0.18
6 | HMT3552 BREAST | 0.984 ± 0.029 | 1.04 ± 0.043 | 1.08 ± 0.093 | 1.04 ± 0.036 | 1.22 ± 0.018 | 1.19 ± 0.064 | 0.121 ± 0.016 | 0.103 ± 0.01 | 1.01 ± 0.031 | 0.968 ± 0.018 | 1.04 ± 0.021 | 1.02 ± 0.018 | 1.09 ± 0.11 | 1.07 ± 0.11 | 1.12 ± 0.12 | 1.1 ± 0.069
7 | HS578T BREAST | 0.988 ± 0.17 | 1.02 ± 0.11 | 0.972 ± 0.14 | 1.04 ± 0.11 | 1.05 ± 0.041 | 0.796 ± 0.14 | 0.216 ± 0.028 | 0.191 ± 0.02 | 0.935 ± 0.21 | 1.06 ± 0.049 | 0.932 ± 0.16 | 0.796 ± 0.052 | 0.766 ± 0.084 | 0.841 ± 0.1 | 0.848 ± 0.091 | 0.669 ± 0.058
